# From patent US6593374B2, “Tubulin binding ligands and corresponding prodrug constructs” (Baylor University, priority 2000, dated 2003)
# Where two headings read alike, the source gives them in different places.
# Experiments:
# tumor vasculature = conditions: cited from earlier work
# [1] = cited from earlier work
# purified tubulin [2] = conditions: previously described compounds; cited from earlier work
# NCI 60 cell line panel = assay: NCI 60 cell line panel; type: cell-based; conditions: Homo sapiens
# human cancer cells = assay: Cytotoxicity against human cancer cells; type: cell-based
# purified tubulin [3] = test system: T1, purified tubulin; assay: Inhibition of tubulin polymerization assay; type: biochemical, bovine; conditions: for IC50: read-out: IC50, in vitro inhibition of tubulin polymerization, purified bovine brain tubulin 1.5 mg/ml, 15 min preincubation at 37° C., GTP-induced, 350 nm
# T1 construct: other: purified bovine brain tubulin 1.5 mg/ml, 15 min preincubati
# Procedure: After the incubation period, the reaction was cooled and GTP was added to induce tubulin polymerization. Polymerization was then monitored in a Gilford spectrophotometer at 350 nm. The final reaction mixtures (0.25 ml) contained 1.5 mg/ml tubulin, 0.6 mg/ml microtubule-associated proteins (MAPs), 0.5 mM GTP, 0.5 mM MgCl2, 4% DMSO and 0.1M 4-morpholineethanesulfonate buffer (MES, pH 6.4).
# NCI-H460 = assay: Growth inhibition, human cancer cell line NCI-H460 (SRB); type: cell-based; conditions: Lung-NSC, 48 hours
# Procedure: (§1) Several of the compounds described in this application were evaluated in terms of growth inhibitory activity against several human cancer cell lines, including pancreas, breast, CNS, lung-NSC, colon, and prostate lines. The assay used is described in Monks et al.^32 Briefly, the cell suspensions, diluted according to the particular cell type and the expected target cell density (5,000-40,000 cells per well based on cell growth characteristics), were added by pipet (100 μl) to 96-well microtiter plates. Inoculates were allowed a preincubation time of 24-28 hours at 37° C. for stabilization. Incubation with the inhibitor compounds lasted for 48 hours in 5% CO2 atmosphere and 100% humidity. Determination of cell growth was done by in situ fixation of cells, followed by staining with a protein-binding dye, sulforhodamine B (SRB), which binds to the basic amino acids of cellular macromolecules. The solubilized stain was measured spectrophotometrically.
# BXPC-3 = assay: Growth inhibition, human cancer cell line BXPC-3 (SRB); type: cell-based; conditions: Pancreas-a, 48 hours
# Procedure: as §1
# KM20L2 = assay: Growth inhibition, human cancer cell line KM20L2 (SRB); type: cell-based; conditions: 48 hours
# Procedure: as §1
# DU-145 = assay: Growth inhibition, human cancer cell line DU-145 (SRB); type: cell-based; conditions: Prostate, 48 hours
# Procedure: as §1
# MHEC = assay: In vivo tumor growth control in scid mice after MHEC inoculation; conditions: female scid mice, single dose ip 400 mg/kg, one week after MHEC inoculation (1×10^6/mouse)
# Procedure: Female scid mice were single dose ip administered with CA-4P, and benzo[b]thiophene phosphate prodrug at 400 mg/kg (i.e., MDT of CA-4P) after one week of MHEC inoculation (1×10^6/mouse) (FIG. 20). Studies were carried out through a collaboration with professors Ronald W. Pero and Klaus Edvardsen, University of Lund, Sweden
# MCF-7 = assay: Growth inhibition, human cancer cell line MCF-7 (SRB); type: cell-based; conditions: 48 hours
# Procedure: as §1
# SF-295 = assay: Growth inhibition, human cancer cell line SF-295 (SRB); type: cell-based; conditions: CNS, 48 hours
# Procedure: as §1
# SF-268 = assay: Growth inhibition, human cancer cell line SF-268 (SRB); type: cell-based; conditions: CNS Gliobl, 48 hours
# Procedure: as §1
# P388 leukemia cells = assay: Cytotoxicity assay with P388 leukemia cells; type: cell-based
# FADU = assay: Growth inhibition, human cancer cell line FADU (SRB); type: cell-based; conditions: Pharynx-sqam, 48 hours
# Procedure: as §1
# OVCAR-3 = assay: Growth inhibition, human cancer cell line OVCAR-3 (SRB); type: cell-based; conditions: Ovarian, 48 hours
# Procedure: as §1
# [4] = Homo sapiens, KM-20L2, Colon, read-out: GI50
# [5] = Homo sapiens, MCF7, Breast adn, read-out: GI50
compound,measurement,setting,value
COc1ccc(/C=C\c2cc(OC)c(OC)c(OC)c2)cc1OP(=O)([O-])[O-].[Na+].[Na+] [CSA-4 prodrug],destruction of tumor vasculature (in words),tumor vasculature,very active in terms of tumor vasculature destruction
COc1ccc(/C=C\c2cc(OC)c(OC)c(OC)c2)cc1O [Combretastatin A-4],water solubility (in words),[1],poor water solubility
same,inhibition of tubulin polymerization (in words),purified tubulin [2],potent inhibitor of tubulin polymerization
same,destruction of tumor vasculature (in words),tumor vasculature,does not demonstrate destruction of tumor vasculature
"COc1ccc2scc(OC)c2c1OC [Compound 1, 3,4,5-trimethoxybenzo[b]thiophene]",GI50,NCI 60 cell line panel,0.263 µM
same,cytotoxicity (in words),human cancer cells,potent cytotoxicity
same,inhibition of tubulin polymerization (in words),purified tubulin [3],inhibition of tubulin polymerization
"COc1ccc2c(C(=O)c3cc(OC)c(OC)c(OC)c3)c(-c3ccc(OC)c(OP(=O)([O-])[O-])c3)sc2c1.[Na+].[Na+] [Compound 3, 3-(3′,4′,5′-trimethoxybenzoyl)-2-(3′-sodiumphosphate-4′-methoxyphenyl)-6-methoxybenzo[b]thiophene]",GI50,NCI-H460,0.035 µg/mL
same,GI50,BXPC-3,0.35 µg/mL
same,GI50,KM20L2; Colon,0.22 µg/mL
same,GI50,DU-145,0.045 µg/mL
same,tumor growth control (FIG. 20),MHEC,remarkable activity in terms of tumor growth control
same,GI50,MCF-7; Breast adn,0.028 µg/mL
same,IC50,purified tubulin [3],1 to 4 µM
same,GI50,SF-295,0.11 µg/mL
COc1ccc2c(c1)CCCC2(O)c1cc(OC)c(OC)c(OC)c1 (stereo not drawn) [Compound 14A],GI50,"NCI-H460; Homo sapiens, read-out: GI50",0.16 µg/mL
same,GI50,"BXPC-3; Homo sapiens, read-out: GI50",0.13 µg/mL
same,GI50,KM20L2; [4],0.11 µg/mL
same,GI50,"DU-145; Homo sapiens, read-out: GI50",0.38 µg/mL
same,GI50,MCF-7; [5],0.043 µg/mL
same,IC50,purified tubulin [3],1 to 4 µM
same,GI50,SF-268,0.67 µg/mL
"CCOP(=O)(Nc1c(OC)ccc2c1CCC=C2c1cc(OC)c(OC)c(OC)c1)OCC [Compound 16, 6-methoxy-1-(3′,4′,5′-trimethoxyphenyl)-5-diethylphosphoramidate-3,4-dihydronaphthalene]",GI50,"NCI-H460; Homo sapiens, read-out: GI50",3.4 µg/mL
same,ED50 (effective dosage required to inhibit 50% of cell growth),P388 leukemia cells,20.4 µg/mL
same,GI50,"BXPC-3; Homo sapiens, read-out: GI50",2 µg/mL
same,GI50,KM20L2; [4],2.5 µg/mL
same,GI50,"DU-145; Homo sapiens, read-out: GI50",2.8 µg/mL
same,GI50,MCF-7; [5],3 µg/mL
same,IC50,purified tubulin [3],> 40 µM
same,GI50,"SF-295; Homo sapiens, read-out: GI50",2.2 µg/mL
"C#CC=CC#CC(=O)c1cc(OC)c(OC)c(OC)c1 [Compound 30, 1-(3,4,5-trimethoxybenzoyl)-(Z)-3-ene-1,5-hexadiyne]",GI50,"NCI-H460; Homo sapiens, read-out: GI50",1.7 µg/mL
same,GI50,"BXPC-3; Homo sapiens, read-out: GI50",1.4 µg/mL
same,GI50,"DU-145; Homo sapiens, read-out: GI50",0.54 µg/mL
same,cytotoxicity (in words),human cancer cells,strong cytotoxicity
same,inhibition of tubulin polymerization (in words),purified tubulin [3],excellent inhibition of tubulin polymerization
same,IC50,purified tubulin [3],2 to 4 µM
same,GI50,FADU,0.95 µg/mL
same,GI50,"SF-295; Homo sapiens, read-out: GI50",1.7 µg/mL
same,GI50,OVCAR-3,0.53 µg/mL
